According to ChEMBL document CHEMBL3112395, “Synthesis and structure-activity relationship studies of N-terminal analogues of the antimicrobial peptide tridecaptin A(1)” (J Med Chem, 2014):
In brackets after ≈: the same amount, converted by molar mass.

How the values were obtained:
Pseudomonas aeruginosa = assay: Antibacterial activity against Pseudomonas aeruginosa ATCC 27853 assessed as growth inhibition by broth dilution method; assay type: functional
Klebsiella pneumoniae [1] = assay: Antibacterial activity against Klebsiella pneumoniae ATCC 13883 assessed as growth inhibition by broth dilution method; assay type: functional
Campylobacter jejuni = assay: Antibacterial activity against Campylobacter jejuni NCTC 11168 assessed as growth inhibition by broth dilution method; assay type: functional
Enterococcus faecium = assay: Antibacterial activity against Enterococcus faecium ATCC 19434 assessed as growth inhibition by broth dilution method; assay type: functional
[2] = Hemolytic activity in rabbit erythrocytes at 83 ug/mL after 30 mins relative to control; assay type: ADME, cell-based, Oryctolagus cuniculus, Erythrocyte; conditions: read-out: Activity
Escherichia coli [3] = assay: Antibacterial activity against Escherichia coli ATCC 25922 assessed as growth inhibition by broth dilution method; assay type: functional
[4] = Cytotoxicity against HEK293 cells assessed as growth inhibition after 48 hrs by MTT assay; assay type: cell-based; conditions: human, read-out: MIC
Acinetobacter baumannii = assay: Antibacterial activity against Acinetobacter baumannii ATCC 19606 assessed as growth inhibition by broth dilution method; assay type: functional
Enterococcus faecalis = assay: Antibacterial activity against Enterococcus faecalis ATCC 29212 assessed as growth inhibition by broth dilution method; assay type: functional
Staphylococcus aureus = assay: Antibacterial activity against Staphylococcus aureus ATCC 29213 assessed as growth inhibition by broth dilution method; assay type: functional
Listeria monocytogenes = assay: Antibacterial activity against Listeria monocytogenes ATCC […] assessed as growth inhibition by broth dilution method; assay type: functional
Salmonella enterica = assay: Antibacterial activity against Salmonella enterica ATCC 13311 assessed as growth inhibition by broth dilution method; assay type: functional
[5] = Antibacterial activity against multi-drug resistant Clostridium difficile 630 assessed as growth inhibition by broth dilution method; assay type: functional, Clostridioides difficile 630; conditions: Clostridioides difficile
Enterobacter cloacae = assay: Antibacterial activity against multi-drug resistant Enterobacter cloacae 849 clinical isolate assessed as growth inhibition by broth dilution method; assay type: functional
Klebsiella pneumoniae [6] = assay: Antibacterial activity against multi-drug resistant Klebsiella pneumoniae KpCG clinical isolate assessed as growth inhibition by broth dilution method; assay type: functional
Escherichia coli [7] = assay: Antibacterial activity against Escherichia coli O157:H7 assessed as growth inhibition by broth dilution method; assay type: functional

Structure (SMILES)	MIC (Pseudomonas aeruginosa)	MIC (Klebsiella pneumoniae [1])	MIC (Campylobacter jejuni)	MIC (Enterococcus faecium)	hemolysis at 0.5 h, 83 ug/mL [2]	MIC (Escherichia coli [3])	MCC at 48 h [4]	MIC (Acinetobacter baumannii)	MIC (Enterococcus faecalis)	MIC (Staphylococcus aureus)	MIC (Listeria monocytogenes)	MIC (Salmonella enterica)	MIC [5]	MIC (Enterobacter cloacae)	MIC (Klebsiella pneumoniae [6])	MIC (Escherichia coli [7])
CC[C@H](C)CC[C@@H](O)CC(=O)N[C@@H](C(=O)N[C@H](CCN)C(=O)NCC(=O)N[C@H](CO)C(=O)N[C@H](Cc1c[nH]c2ccccc12)C(=O)N[C@@H](CO)C(=O)N[C@@H](CCN)C(=O)N[C@H](CCN)C(=O)N[C@@H](Cc1ccccc1)C(=O)N[C@@H](CCC(=O)O)C(=O)N[C@H](C(=O)N[C@@H](C(=O)N[C@@H](C)C(=O)O)[C@@H](C)CC)C(C)C)C(C)C	50 µg/mL (≈ 32.2 µM)	3.13 µg/mL (≈ 2.02 µM)	1.56 µg/mL (≈ 1.01 µM)	> 100 µg/mL	3.2%	3.13 µg/mL (≈ 2.02 µM)	200 µg/mL	12.5 µg/mL (≈ 8.06 µM)	> 100 µg/mL	> 100 µg/mL	50 µg/mL (≈ 32.2 µM)	6.25 µg/mL (≈ 4.03 µM)	–	–	–	–
CCCCCCCCCCCC(=O)N[C@@H](C(=O)N[C@H](CCN)C(=O)NCC(=O)N[C@H](CO)C(=O)N[C@H](Cc1c[nH]c2ccccc12)C(=O)N[C@@H](CO)C(=O)N[C@@H](CCN)C(=O)N[C@H](CCN)C(=O)N[C@@H](Cc1ccccc1)C(=O)N[C@@H](CCC(=O)O)C(=O)N[C@H](C(=O)N[C@@H](C(=O)N[C@@H](C)C(=O)O)[C@@H](C)CC)C(C)C)C(C)C	> 100 µg/mL	12.5 µg/mL (≈ 7.93 µM)	0.4 µg/mL (≈ 0.254 µM)	100 µg/mL (≈ 63.4 µM)	82.2%	12.5 µg/mL (≈ 7.93 µM)	–	50 µg/mL (≈ 31.7 µM)	> 100 µg/mL	> 100 µg/mL	50 µg/mL (≈ 31.7 µM)	50 µg/mL (≈ 31.7 µM)	–	–	–	–
CCCC(=O)N[C@@H](C(=O)N[C@H](CCN)C(=O)NCC(=O)N[C@H](CO)C(=O)N[C@H](Cc1c[nH]c2ccccc12)C(=O)N[C@@H](CO)C(=O)N[C@@H](CCN)C(=O)N[C@H](CCN)C(=O)N[C@@H](Cc1ccccc1)C(=O)N[C@@H](CCC(=O)O)C(=O)N[C@H](C(=O)N[C@@H](C(=O)N[C@@H](C)C(=O)O)[C@@H](C)CC)C(C)C)C(C)C	> 100 µg/mL	25 µg/mL (≈ 17.1 µM)	12.5 µg/mL (≈ 8.53 µM)	> 100 µg/mL	0.8%	12.5 µg/mL (≈ 8.53 µM)	–	100 µg/mL (≈ 68.3 µM)	> 100 µg/mL	> 100 µg/mL	> 100 µg/mL	25 µg/mL (≈ 17.1 µM)	–	–	–	–
CC[C@H](C)[C@@H](NC(=O)[C@@H](NC(=O)[C@H](CCC(=O)O)NC(=O)[C@H](Cc1ccccc1)NC(=O)[C@@H](CCN)NC(=O)[C@H](CCN)NC(=O)[C@H](CO)NC(=O)[C@@H](Cc1c[nH]c2ccccc12)NC(=O)[C@@H](CO)NC(=O)CNC(=O)[C@@H](CCN)NC(=O)[C@H](NC(=O)OCC1c2ccccc2-c2ccccc21)C(C)C)C(C)C)C(=O)N[C@@H](C)C(=O)O	> 100 µg/mL	6.25 µg/mL (≈ 3.87 µM)	0.78 µg/mL (≈ 0.482 µM)	25 µg/mL (≈ 15.5 µM)	100%	6.25 µg/mL (≈ 3.87 µM)	–	12.5 µg/mL (≈ 7.73 µM)	50 µg/mL (≈ 30.9 µM)	100 µg/mL (≈ 61.8 µM)	12.5 µg/mL (≈ 7.73 µM)	6.25 µg/mL (≈ 3.87 µM)	–	–	–	–
CC[C@H](C)[C@@H](NC(=O)[C@@H](NC(=O)[C@H](CCC(=O)O)NC(=O)[C@H](Cc1ccccc1)NC(=O)[C@@H](CCN)NC(=O)[C@H](CCN)NC(=O)[C@H](CO)NC(=O)[C@@H](Cc1c[nH]c2ccccc12)NC(=O)[C@@H](CO)NC(=O)CNC(=O)[C@@H](CCN)NC(=O)[C@H](N)C(C)C)C(C)C)C(=O)N[C@@H](C)C(=O)O	100 µg/mL (≈ 71.7 µM)	50 µg/mL (≈ 35.9 µM)	> 100 µg/mL	> 100 µg/mL	0.5%	100 µg/mL (≈ 71.7 µM)	–	> 100 µg/mL	> 100 µg/mL	> 100 µg/mL	> 100 µg/mL	100 µg/mL (≈ 71.7 µM)	–	–	–	–
CCCCCCCC(=O)N[C@@H](C(=O)N[C@H](CCN)C(=O)NCC(=O)N[C@H](CO)C(=O)N[C@H](Cc1c[nH]c2ccccc12)C(=O)N[C@@H](CO)C(=O)N[C@@H](CCN)C(=O)N[C@H](CCN)C(=O)N[C@@H](Cc1ccccc1)C(=O)N[C@@H](CCC(=O)O)C(=O)N[C@H](C(=O)N[C@@H](C(=O)N[C@@H](C)C(=O)O)[C@@H](C)CC)C(C)C)C(C)C	25 µg/mL (≈ 16.4 µM)	3.13 µg/mL (≈ 2.06 µM)	0.78 µg/mL (≈ 0.513 µM)	50 µg/mL (≈ 32.9 µM)	4.7%	3.13 µg/mL (≈ 2.06 µM)	100 µg/mL	12.5 µg/mL (≈ 8.22 µM)	100 µg/mL (≈ 65.8 µM)	100 µg/mL (≈ 65.8 µM)	25 µg/mL (≈ 16.4 µM)	6.25 µg/mL (≈ 4.11 µM)	12.7 µg/mL (≈ 8.35 µM)	0.43 µg/mL (≈ 0.283 µM)	2.33 µg/mL (≈ 1.53 µM)	0.43 µg/mL (≈ 0.283 µM)
CCCCCCCCCCC(=O)N[C@@H](C(=O)N[C@H](CCN)C(=O)NCC(=O)N[C@H](CO)C(=O)N[C@H](Cc1c[nH]c2ccccc12)C(=O)N[C@@H](CO)C(=O)N[C@@H](CCN)C(=O)N[C@H](CCN)C(=O)N[C@@H](Cc1ccccc1)C(=O)N[C@@H](CCC(=O)O)C(=O)N[C@H](C(=O)N[C@@H](C(=O)N[C@@H](C)C(=O)O)[C@@H](C)CC)C(C)C)C(C)C	> 100 µg/mL	6.25 µg/mL (≈ 4 µM)	0.4 µg/mL (≈ 0.256 µM)	100 µg/mL (≈ 64 µM)	–	6.25 µg/mL (≈ 4 µM)	–	12.5 µg/mL (≈ 8 µM)	> 100 µg/mL	> 100 µg/mL	25 µg/mL (≈ 16 µM)	12.5 µg/mL (≈ 8 µM)	–	–	–	–
